Measurements reported in patent US20130203830A1, “Compounds for Prevention of Cell Injury” (SULFATEQ B.V., priority 2010, published 2013).
“Also recorded” adds a separate entry of the source.

Assays:
SMAC cells [1] = experiment: Survival of SMAC cells after hypothermia (MTS assay / cell counting); type: cell-based, rat; conditions: for effect on the protective effect of serotonin on hypothermic SMAC cells: 24 h, 3° C., ketanserine 400 ng/ml and 10 μg/ml, fluoxetine 0.005 μM, CBS siRNA
Experimental: (§1) Cell lines used included NRK (normal rat kidney cells), DDT-1 (hamster ductus deferens muscle cells) and A7R5 (rat vascular smooth muscle cells) cultured in DMEM (Gibco, 41966, UK) and SMAC (rat smooth muscle aortic cells) and THMC (transformed human mesangial cell) cultured in DMEM/F12 (Gibco, E12-719F). All media were supplied with 10% (vol/vol) fetal calf serum and 1% penicillin-streptomycin and cultured at 37° C. in 5% CO2 in 25 cm^2 or 75 cm^2 flasks. For hypothermia experiments, cells were plated in 6 or 96 wells plates and grown to confluence. Thereupon, cells were placed at 3° C. for up to 24 hours. Cell survival was measured by counting of trypan blue stained cells or MTS assay, which measures the number of viable cells. For the latter, 20 μl of MTS solution was added to each well and cells were subsequently placed in the incubator at 37° C. in 5% CO2 for 3 hr before assessing the cell survival by measuring absorption using a microplate reader at 490 nm.
(§2) MTS assay was performed to investigate cell survival after blocking serotonin transporter and hypothermic treatment.

DDT-1 cells [2] = experiment: Survival of DDT-1 cells after hypothermia (MTS assay); type: cell-based, hamster; conditions: 3° C.; for resistance / survival of DDT-1 cells in hypothermia: 24 h, ketanserine 400 ng/ml and 10 μg/ml, fluoxetine 0.005 μM 15 min before, CBS siRNA
Experimental: as §1, with “Thereupon, cells were placed at 3° C. for up to 24 hours.” left out
as §2
Parachlorophenyl-alanine (PCPA; Sigma, C6506-5G) was dissolved in warmed, acidified (pH 6.8) DDT-1 medium and vortexed for 5 min to a final concentration of 1.25 μM. Other concentrations were made from this stock solution. Control experiments were performed with a similar solution without PCPA. Anhydrous creatine (Sigma C4255-25G, USA) was dissolved in cell medium and added to wells to exclude the effect of this component. The treatment continued for 4 days until the concentration of indoleamines inside the cells reached half the baseline value. The cells were placed at 3° C., and MTS assay was performed after 24 h.

DDT-1 cells [3] = experiment: Indoleamine content of DDT-1 cells (Ehrlich reagent); type: cell-based, hamster; conditions: 4 days of pretreatment, n=8
Experimental: Ehrlich's reagent was used to quantify the cellular amount of indoles. Qualitative analysis of cellular indoles in cell culture medium at 37° C. and 3° C. was conducted after extraction according to Happold and Hoyle. Five ml of medium was shaken vigorously with 2 ml of xylene. Next, 1 ml of Ehrlich's reagent is applied to the surface of the mixture. Redistribution of xylene through the Ehrlich's reagent induces formation of the rosindole body, a red ring appearing at the lower surface of the xylene layer indicating the presence of indoleamides. The change in indole concentration in DDT-1 cells was measured after washing the cells with PBS, centrifugation (1000 rpm, 5 min) and removal of supernatant. Ehrlich reagent (200 μl) was added to each tube. After 3 min of vortexing, tubes were left for 3 h at 60° C. After centrifugation (1000 rpm, 5 min), color intensity was spectrophotometrically measured at 625 nm. Calibration experiments were carried out using 5-HT (0.025-0.5 mM), which rendered a linear regression with a correlation coefficient (R2) of 0.9996 (data not shown). To verify the accuracy of the Ehrlich reagent experiments automated mass spectrometric analysis was performed on all the samples according to the method set up by Ido P. Kema. […]

CBS [4] = experiment: CBS expression in liver of cooled and rewarmed rats; type: in vivo, rat; conditions: rats cooled to 15° C. for 3 hr and rewarmed; compared to controls
Experimental: (§3) Three groups of male Wistar rats (350-400 gr) were investigated: cooled rats either anesthetized with propofol or ketamine (n=6 each); a non-cooled control group briefly anesthetized with isofluran was sacrificed at 37° C. (n=3). After anesthesia with isofluran, the trachea was intubated with a […] cuffed tube and mechanical ventilation was started with air. A 5F central venous catheter was introduced in the internal jugular vein for blood sampling, hydration and administration of the anesthetic. A catheter was inserted in the common carotid artery for continuous monitoring of systemic arterial pressure and for blood gas analysis. Cardiovascular and oxygen saturation monitoring was performed during the entire procedure. After preparation, isoflurane was stopped and anesthesia was maintained with either propofol-Lipro (20 mg/m; Braun, Melsungen, Duitsland) at 2 ml/h or ketamine 0.6 ml/hr for 1 hr. Cooling of the animals was accomplished by an external cooling blanket and ice packs. […] Rats were kept at this temperature for 3 hr, followed by rewarming to 37° C. in about 1 hr using a heating blanket and warm air. The rats were then kept at 37° C. for another hr, followed by sacrification by exsanguination. […]
CBS (cystathionine betasynthase) expression was also measured as the one of the main enzymes producing H2S in the liver.

[5] = Serum H2S concentration in rats (methylene blue method); type: in vivo, rat; conditions: throughout cooling and rewarming procedure, compared to control
SMAC cells [6] = experiment: H2S production in SMAC cells at 3° C. (methylene blue, supernatant); type: cell-based, rat; conditions: SMAC cells incubated at 3° C. for 24 hour
Experimental: (§4) Methylene blue method for H2S detection was applied to quantitatively measure the H2S production. Cells were washed with PBS, scraped and centrifuged for 60 sec at 1000 rpm. After removal of the supernatant, zinc acetate 1% in water (200 μl) was added to the cell sediments and the cells were disrupted by small glass beads and vortexed for 20 seconds. Diamine-ferric solution was prepared by mixing 100 μl of a 400 mg N,N-dimethyl-p-phenylenediamine dihydrochloride dissolved in 10 ml 6M HCl and 100 μl of 600 mg ferric chloride in 10 ml 6M HCl. Two hundred μl of this mixture was added to the cell suspension and after an incubation time of 30 min at 37° C. and centrifugation, the amount of methylene blue formed in the supernatant was measured at a wavelength of 670 nm. To measure H2S content of supernatant, the same procedure was repeated for the cell free medium of cells incubated at both 37° C. and 3° C. Blanks were made following the same procedure without cells or using fresh medium. The concentration of H2S was calculated by extrapolation using a standard curve obtained from different concentrations of Methylene blue and spectrophotometric measurement at a wavelength of 670 nm. The amount of H2S present was calculated on the basis that every mole of methylene blue formed in this reaction contains 32 g (1 mole) of captured sulfur.
Methylene blue method for H2S detection was applied to quantitatively examine the H2S present in cell supernatant at 0 and 24 hr after hypothermic treatment at 3° C.

male Wistar rats = experiment: In vivo protection from hypothermic liver damage (FABP1 expression); design: species or system rat; conditions: rats cooled to 15° C. for 3 hr and rewarmed to 37° C.; compared to non-cooled control
Experimental: as §3, with “exsanguination. Blood sampling was performed at the end of the preparation period and every hr after the body temperature reached 15° C.” for “exsanguination.”

CBS [7] = biological target: T1, CBS (Homo sapiens, UniProt P35520); conditions: binding to CBS; cited from earlier work
T1 sequence (P35520 1-551): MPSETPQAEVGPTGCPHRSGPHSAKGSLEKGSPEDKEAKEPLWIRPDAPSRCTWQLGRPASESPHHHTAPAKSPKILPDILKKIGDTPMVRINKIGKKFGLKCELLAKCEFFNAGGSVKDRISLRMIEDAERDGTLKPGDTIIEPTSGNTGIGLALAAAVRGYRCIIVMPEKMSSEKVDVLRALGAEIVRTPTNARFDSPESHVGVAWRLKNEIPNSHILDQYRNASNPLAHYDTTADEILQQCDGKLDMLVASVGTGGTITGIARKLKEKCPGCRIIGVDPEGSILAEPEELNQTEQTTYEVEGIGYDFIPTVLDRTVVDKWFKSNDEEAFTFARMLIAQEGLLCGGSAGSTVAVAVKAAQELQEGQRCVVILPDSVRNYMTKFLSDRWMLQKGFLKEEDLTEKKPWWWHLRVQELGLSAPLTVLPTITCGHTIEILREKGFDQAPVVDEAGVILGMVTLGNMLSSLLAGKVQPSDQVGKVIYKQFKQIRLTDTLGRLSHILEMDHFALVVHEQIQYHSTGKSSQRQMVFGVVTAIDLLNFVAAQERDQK

CBS [8] = experiment: CBS expression in normothermic and hypothermic rat tissue (immunostaining); conditions: liver, pancreas, lung, kidney, heart; 3° C., 24 hr
Excerpt: Two rats (rattus norvegicus) were sacrificed and blood was taken out. The tissues were flushed by either PBS as control or PBS plus dopamine. Liver, pancreas, lung, kidney and heart were harvested. […] Tissues were fixed after being taken out of cold room. The tissues were later embedded in Paraffin, cut into 5 μm sections and stained with CBS antibody.

DDT-1 cells [9] = experiment: H2S content of DDT-1 cells (methylene blue method); type: cell-based, hamster; conditions: hypothermia, at 24 h
Experimental: as §4

O=C(c1ccc(F)cc1)C1CCN(CCn2c(=O)[nH]c3ccccc3c2=O)CC1 [Ketanserine]
effect on the protective effect of serotonin on hypothermic SMAC cells (SMAC cells [1]): nor did it affect the protective effect of serotonin
resistance / survival of DDT-1 cells in hypothermia (DDT-1 cells [2]): did not affect the resistance

N[C@@H](Cc1ccc(Cl)cc1)C(=O)O (racemic) [PCPA, parachlorophenylalanine]
decrease in indoleamine content of the cells (DDT-1 cells [3]): 50±10%
DDT-1 survival following hypothermia after PCPA pretreatment (DDT-1 cells [2]; 48 hr): concentration-dependently decreased; also recorded: blocked

CN(CC(=O)O)C(=N)N.O=S(=O)(O)O [Creatine sulfate]
protection against hypothermic cell death / reduction in number of cells (SMAC cells [1]; SMAC cells, 24 h at 3° C., substance added 15 min before hypothermia): did not show any protective effects

CC(C)c1cccc(C(C)C)c1O [propofol, 2,6-diisopropylfenol]
CBS expression in liver (CBS [4]): induces expression of cystathionine beta synthase; also recorded: increased the expression of CBS
Serum H2S concentration [5]: increased
H2S production (SMAC cells [6]): increased H2S production
liver damage, FABP1 expression in liver (male Wistar rats): protects liver tissue against in vivo hypothermia

NCC(CC(=O)O)c1ccc(Cl)cc1 (racemic) [baclofen, (RS)-4-amino-3-(4-chlorophenyl)butanoic acid]
H2S production (SMAC cells [6]): increased H2S production

COc1ccc2[nH]cc(CCNC(C)=O)c2c1 [melatonin, N-[2-(5-methoxy-1H-indol-3-yl)ethyl]acetamide]
H2S production (SMAC cells [6]): increased H2S production

NCCc1c[nH]cn1 [histamine, 4-(2′-aminoethyl)-imidazol]
H2S production (SMAC cells [6]): increased H2S production

CNC1(c2ccccc2Cl)CCCCC1=O (stereo not drawn) [ketamine, reference compound]
CBS expression in liver (CBS [4]): significantly lowered
Serum H2S concentration [5]: decreased
liver damage, FABP1 expression in liver (male Wistar rats): decreased expression of FABP1

Cc1ncc(COP(=O)(O)O)c(C=O)c1O [PLP, Pyridoxal 5-Phosphate]
free energy of binding reported for PLP (CBS [7]): -4.81 kcal/mol

NCCc1ccc(O)c(O)c1 [dopamine, 2-(3,4-dihydroxyfenyl)ethylamine]
CBS expression in hypothermic rat tissue (CBS [8]): increased expression; also recorded: upregulation of CBS
H2S production (SMAC cells [6]): increased H2S production

CNCCC(Oc1ccc(C(F)(F)F)cc1)c1ccccc1 (stereo not drawn) [Fluoxetine]
H2S concentration inside DDT-1 cells (DDT-1 cells [9]): lower concentration of H2S
effect on the protective effect of serotonin on hypothermic SMAC cells (SMAC cells [1]): complete annihilation of the protective effect of serotonin
resistance / survival of DDT-1 cells in hypothermia (DDT-1 cells [2]): death of more than half of these cells
